# Measurements: patent publication US20230286995A1, “METABOLICALLY STABLE PYRIMIDINYL DIHYDROQUINOXALINONES AS TUBULIN POLYMERIZATION INHIBITORS” (UNIVERSITY OF TENNESSEE RESEARCH FOUNDATION, priority 2022, published 2023)
# Like-named read-outs stand apart in the source and are kept apart here.
# Experiments:
# [1] = tested on: PC3; test: Cytotoxicity assay (MTS, 72 h); assay type: cell-based; details: Homo sapiens, PC-3; Table 6; read-out: IC50 (nM) Prostate cancer PC3
# From the text: (§1) Cytotoxicity Assay. […] Each experiment consisted of four replicates.
# [2] = tested on: PC3/TxR; test: Cytotoxicity assay (MTS, 72 h); assay type: cell-based; details: Homo sapiens, Table 6, paclitaxel-resistant, read-out: IC50 (nM) Prostate cancer PC3/TxR
# Protocol: Biology. Cell culture and Reagents. […] MIA Paca-2 pancreatic cancer cells were cultured in media also supplemented with 2.5% horse serum. PANC-1 and PC-3 were cultured in RPMI 1640 medium (Gibco, Carlsbad, Calif.) supplemented with 10% FBS and 1% antibiotic/antimycotic mixture. […] For biological experiments, pyrimidine dihydroquinoxalinone derivatives were dissolved in DMSO to create 20 mM stock solutions and stored at −20° C. until use.
# as §1
# [3] = tested on: MDA-MB-453; test: Cytotoxicity assay (MTS, 72 h); assay type: cell-based, human
# [4] = tested on: MDA-MB-231; test: Cytotoxicity assay (MTS, 72 h); assay type: cell-based; details: Homo sapiens
# [5] = tested on: PANC-1; test: Cytotoxicity assay (MTS, 72 h); assay type: cell-based; details: Homo sapiens
# Protocol: Mia PaCa-2 and PANC-1 cells were seeded in 96-well plates at 4000 and 5000 cells per well, respectively.
# as §1
# [6] = tested on: Mia PaCa-2; test: Cytotoxicity assay (MTS, 72 h); assay type: cell-based; details: Homo sapiens
# [7] = tested on: M14; test: Cytotoxicity assay (MTS, 72 h); details: Homo sapiens
# [8] = tested on: A375; test: Cytotoxicity assay (MTS, 72 h);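 also: compounds tested from 0.1 nM up to 3 µM in four replicate wells, with absorbance read at 490 nm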
# [9] = tested on: RPMI-7951; test: Cytotoxicity assay (MTS, 72 h); assay type: cell-based; details: Homo sapiens, Table 1, read-out: IC50 (nM) Melanoma RPMI-7951
# [10] = tested on: human melanoma and breast cancer cell lines; test: Cytotoxicity, all tested cell lines of Table 1; assay type: cell-based; details: Homo sapiens, melanoma and breast lines of Table 1; read-out: IC50 values, range over all tested cell lines
# [11] = tested on: MDA-MB-468; test: Cytotoxicity assay (MTS, 72 h); assay type: cell-based, human; details: Table 1, read-out: IC50 (nM) Breast MDA-MB-468
# [12] = logP; assay type: physicochemical; details: Table 1; method not described
# [13] = Homo sapiens, MDA-MB-453, Table 6, read-out: IC50 (nM) Breast Cancer MDA-MB-453
# [14] = MDA-MB-231, read-out: IC50 (nM) Breast Cancer MDA-MB-231, Table 6
# [15] = Table 6, read-out: IC50 (nM) Pancreatic cancer PANC-1
# [16] = Table 6, read-out: IC50 (nM) Pancreatic cancer Mia PaCa-2
# [17] = M14, read-out: IC50 (nM) Melanoma Cancer M14
# [18] = Homo sapiens, A-375, read-out: IC50 (nM) Melanoma Cancer A375, Table 6
# [19] = Table 1, read-out: IC50 (nM) Breast MDA-MB-453
# [20] = MDA-MB-231, read-out: IC50 (nM) Breast MDA-MB-231, Table 1
# [21] = M14, read-out: IC50 (nM) Melanoma M14
# [22] = Homo sapiens, A-375, read-out: IC50 (nM) Melanoma A375, Table 1
# [23] = Homo sapiens, MDA-MB-453, Table 1, read-out: IC50 (nM) Breast MDA-MB-453
# [24] = Table 6, cells printed in μM, read-out: IC50 Pancreatic cancer PANC-1
# [25] = Table 6, cells printed in μM, read-out: IC50 Pancreatic cancer Mia PaCa-2
Compound,IC50 [1],IC50 [2],"IC50 [3, 13]","IC50 [4, 14]","IC50 [5, 15]","IC50 [6, 16]","IC50 [7, 17]","IC50 [8, 18]",IC50 [9],"IC50 [4, 20]",logP [12],"IC50 [7, 21]","IC50 [8, 22]","IC50 ([11]; Homo sapiens, MDA-MB-468)",further results
"COc1ccc2c(c1)NC(=O)CN2c1nc(NCCO)nc2c1CCC2 [Compound 12m, 4-(2-((2-hydroxyethyl)amino)-6,7-dihydro-5H-cyclopenta[d]pyrimidin-4-yl)-7-methoxy-3,4-dihydroquinoxalin-2(1H)-one]",14.8 ± 1.8 nM,15 ± 1.6 nM,6.4 ± 1.6 nM,8.6 ± 1.2 nM,43.1 ± 8.2 nM,23.6 ± 3.5 nM,7 ± 1 nM,~8.6 nM,–,–,–,–,–,–,–
"COc1ccc2c(c1)NC(=O)CN2c1nc(Cl)nc2c1COC2 [Compound 5p, 4-(2-chloro-5,7-dihydrofuro[3,4-d]pyrimidin-4-yl)-7-methoxy-3,4-dihydroquinoxalin-2(1H)-one]",–,–,–,–,–,–,–,–,27.2 ± 3.9 nM,36.8 ± 4.5 nM,1.47,23.3 ± 3 nM,31.8 ± 4.4 nM,–,"IC50 [3, 19]: 19.3 ± 3.5 nM; IC50 [10]: 19 to 37 nM; IC50 [11]: 22.8 ± 4.6 nM"
"COc1ccc2c(c1)NC(=O)CN2c1nc(Cl)nc2c1CCC2 [Compound 5l, 4-(2-chloro-6,7-dihydro-5H-cyclopenta[d]pyrimidin-4-yl)-7-methoxy-3,4-dihydroquinoxalin-2(1H)-one]",–,–,–,–,–,–,–,–,6.8 ± 2.5 nM,25.7 ± 6.2 nM,2.74,5.9 ± 1.5 nM,5.5 ± 0.7 nM,5.6 ± 2.2 nM,"IC50 [3, 23]: 3.7 ± 1.2 nM; IC50 [10]: 0.4 to 26 nM"
"COc1ccc2c(c1)NC(=O)CN2c1nc(C)nc2onc(C)c12 [Compound 5k, 4-(3,6-dimethylisoxazolo[5,4-d]pyrimidin-4-yl)-7-methoxy-3,4-dihydroquinoxalin-2(1H)-one]",–,–,–,–,–,–,–,–,7 ± 2.3 nM,9.3 ± 1.6 nM,2.46,6.7 ± 2.2 nM,14.3 ± 4.1 nM,7.5 ± 1.6 nM,"IC50 [3, 23]: 4.6 ± 1.1 nM"
"COc1ccc2c(c1)NC(=O)CN2c1nc(Cl)nc2ccoc12 [Compound 5j, 4-(2-chlorofuro[3,2-d]pyrimidin-4-yl)-7-methoxy-3,4-dihydroquinoxalin-2(1H)-one]",–,–,–,–,–,–,–,–,14.8 ± 3.7 nM,5.4 ± 0.6 nM,1.6,5.6 ± 1.2 nM,11.9 ± 3.2 nM,6.4 ± 1.3 nM,"IC50 [3, 23]: 1.4 ± 0.3 nM"
"COc1ccc2c(c1)NC(=O)CN2c1nc(OC)nc2c1CCC2 [Compound 12b, 7-methoxy-4-(2-methoxy-6,7-dihydro-5H-cyclopenta[d]pyrimidin-4-yl)-3,4-dihydroquinoxalin-2(1H)-one]",7.2 ± 1.2 nM,4.7 ± 0.7 nM,3.4 ± 0.8 nM,7.5 ± 1.5 nM,9.4 ± 1.5 nM,9 ± 1.3 nM,5.3 ± 1.1 nM,~3.2 nM,–,–,–,–,–,–,–
"COc1ccc2c(c1)NC(=O)CN2c1ncnc2c1CCC2 [Compound 5n, 4-(6,7-dihydro-5H-cyclopenta[d]pyrimidin-4-yl)-7-methoxy-3,4-dihydroquinoxalin-2(1H)-one]",–,–,–,–,–,–,–,–,14 ± 3.9 nM,54 ± 9.9 nM,2.05,19.1 ± 5.3 nM,13.4 ± 1.9 nM,15.6 ± 3.8 nM,"IC50 [3, 23]: 7.3 ± 1.5 nM"
"COc1ccc2c(c1)NC(=O)CN2c1nc(Cl)nc2c1CCCC2 [Compound 5o, 4-(2-chloro-5,6,7,8-tetrahydroquinazolin-4-yl)-7-methoxy-3,4-dihydroquinoxalin-2(1H)-one]",–,–,–,–,–,–,–,–,> 1000 nM,> 1000 nM,3.16,> 1000 nM,> 1000 nM,> 1000 nM,"IC50 [3, 19]: 256 ± 59.5 nM"
"COc1ccc2c(c1)NC(=O)CN2c1nc(N=C=S)nc2c1CCC2 [Compound 12l, 4-(2-isothiocyanato-6,7-dihydro-5H-cyclopenta[d]pyrimidin-4-yl)-7-methoxy-3,4-dihydroquinoxalin-2(1H)-one]",6.3 ± 0.8 nM,4.8 ± 0.7 nM,2.9 ± 0.6 nM,4.9 ± 0.8 nM,10.7 ± 2.3 nM,7.3 ± 1.2 nM,2.6 ± 0.4 nM,~3.3 nM,–,–,–,–,–,–,–
"COc1ccc2c(c1)NC(=O)CN2c1nc(SC)nc2c1CCC2 [Compound 10, 7-methoxy-4-(2-(methylthio)-6,7-dihydro-5H-cyclopenta[d]pyrimidin-4-yl)-3,4-dihydroquinoxalin-2(1H)-one]",2.4 ± 0.4 nM,1.6 ± 0.2 nM,1.4 ± 0.6 nM,4.3 ± 0.7 nM,3.4 ± 0.6 nM,3.9 ± 0.6 nM,3.2 ± 0.5 nM,3.4 ± 0.5 nM,–,–,–,–,–,–,–
"COc1ccc2c(c1)NC(=O)CN2c1nc(N)nc2c1CCC2 [Compound 12c, 4-(2-amino-6,7-dihydro-5H-cyclopenta[d]pyrimidin-4-yl)-7-methoxy-3,4-dihydroquinoxalin-2(1H)-one]",3.8 ± 0.6 nM,2.3 ± 0.3 nM,1.4 ± 0.4 nM,2.3 ± 0.5 nM,5.5 ± 1 nM,5 ± 0.7 nM,1.7 ± 0.3 nM,~2.01 nM,–,–,–,–,–,–,–
"COc1ccc2c(c1)NC(=O)CN2c1nc(N2CCOCC2)nc2c1CCC2 [Compound 12e, 7-methoxy-4-(2-morpholino-6,7-dihydro-5H-cyclopenta[d]pyrimidin-4-yl)-3,4-dihydroquinoxalin-2(1H)-one]",23.9 ± 3.6 nM,14.4 ± 2.2 nM,17.6 ± 4 nM,25.8 ± 4.6 nM,56.2 ± 9 nM,44.4 ± 7.1 nM,18.3 ± 3.7 nM,~13.6 nM,–,–,–,–,–,–,–
"COc1ccc2c(c1)NC(=O)CN2c1nc(O)nc2c1CCC2 [Compound 12a, 4-(2-hydroxy-6,7-dihydro-5H-cyclopenta[d]pyrimidin-4-yl)-7-methoxy-3,4-dihydroquinoxalin-2(1H)-one]",–,–,688 ± 186 nM,1200 ± 346 nM,–,–,662 ± 126 nM,~646 nM,–,–,–,–,–,–,"IC50 [5, 24]: > 1250 nM; IC50 [6, 25]: > 1250 nM"
"COc1ccc2c(c1)NC(=O)CN2c1nc(N2CCCC2)nc2c1CCC2 [Compound 12g, 7-methoxy-4-(2-(pyrrolidin-1-yl)-6,7-dihydro-5H-cyclopenta[d]pyrimidin-4-yl)-3,4-dihydroquinoxalin-2(1H)-one]",–,–,98.1 ± 23.3 nM,119 ± 20.5 nM,213 ± 47.6 nM,508 ± 59.1 nM,84.7 ± 17.6 nM,~82.1 nM,–,–,–,–,–,–,"IC50 ([8]; read-out: IC50 (nM) Melanoma Cancer A375, Table 6): 82.2 ± 12.9 nM"
"COc1ccc2c(c1)NC(=O)CN2c1nc(-n2ccnc2)nc2c1CCC2 [Compound 12h, 4-(2-(1H-imidazol-1-yl)-6,7-dihydro-5H-cyclopenta[d]pyrimidin-4-yl)-7-methoxy-3,4-dihydroquinoxalin-2(1H)-one]",8.2 ± 1.4 nM,4.7 ± 0.7 nM,4.5 ± 1.2 nM,8.4 ± 1.5 nM,11.5 ± 2.3 nM,15.5 ± 2.5 nM,5.8 ± 1.2 nM,~5.7 nM,–,–,–,–,–,–,–
"COc1ccc2c(c1)NC(=O)CN2c1nc(C)nc(C)c1C [Compound 5r, 7-methoxy-4-(2,5,6-trimethylpyrimidin-4-yl)-3,4-dihydroquinoxalin-2(1H)-one]",–,–,–,–,–,–,–,–,8.9 ± 1.5 nM,18 ± 2.7 nM,2.97,9.8 ± 1.7 nM,9 ± 1 nM,–,"IC50 [3, 19]: 4.3 ± 0.9 nM; IC50 [11]: 5.2 ± 2.2 nM"
"COc1ccc2c(c1)[nH]c(=O)n2-c1nc(SC)nc2c1CCC2 [Compound 18, 5-methoxy-1-(2-(methylthio)-6,7-dihydro-5H-cyclopenta[d]pyrimidin-4-yl)-1H-benzo[d]imidazol-2(3H)-one]",–,–,2180 ± 861 nM,1340 ± 409 nM,–,–,1110 ± 306 nM,1180 ± 339 nM,–,–,–,–,–,–,"IC50 [5, 24]: > 1250 nM; IC50 [6, 25]: > 1250 nM"
"COc1ccc2c(c1)NC(=O)CN2c1nc(S(C)(=O)=O)nc2c1CCC2 [Compound 11, 7-methoxy-4-(2-(methylsulfonyl)-6,7-dihydro-5H-cyclopenta[d]pyrimidin-4-yl)-3,4-dihydroquinoxalin-2(1H) one]",–,–,58.8 ± 16.3 nM,191 ± 32 nM,–,–,62.2 ± 10.8 nM,~84.9 nM,–,–,–,–,–,–,"IC50 [5, 24]: > 1250 nM; IC50 [6, 25]: > 1250 nM"
"COc1cc2c(cc1F)N(c1nc(Cl)nc3cccnc13)CC(=O)N2 [Compound 5i, 4-(2-chloropyrido[3,2-d]pyrimidin-4-yl)-6-fluoro-7-methoxy-3,4-dihydroquinoxalin-2(1H)-one]",–,–,–,–,–,–,–,–,> 1000 nM,> 1000 nM,2.23,> 1000 nM,> 1000 nM,940 ± 300 nM,"IC50 [3, 23]: 693 ± 102 nM"
